Several values for one entry are separate records, joined by “and”; a condition that tells them apart may be missing. Equal values may be shown once. Read-outs that look alike come from different tables or passages of the source.
Columns and labels:
TopBP1/E2F1 interaction [1] = biological target: T1, TopBP1/E2F1 interaction (Homo sapiens, UniProt Q92547); assay: Co-immunoprecipitation in MDA-MB468 cells, TopBP1/E2F1; format: cell-based; details: 2.5 μM, 5 h
T1 construct: endogenous in cells; host or cells: MDA-MB468
Protocol: MDA-MB468 cells were lysed with TNN buffer (Liu et al. 2003). An aliquot of cell lysates was lysed with SDS lysis buffer and the rest of cell lysates were incubated with appropriate antibodies or beads at 4° C. for 3-12 h. Anti-FLAG beads (Sigma) were washed three times with TNN buffer. Immunoprecipitates were fractionated by SDS-PAGE and electro-transferred to Immobilon-P membrane (Millipore). Equal amount of protein loading was validated with Ponceau-S staining. The specific signals were detected by incubating with appropriate antibody. All primary antibodies were used at 1:1000 dilution and horseradish peroxidase (HRP)-conjugated secondary antibodies were used at 1:5000 dilution for immunoblotting. E2F1 (C-20 and KH-95), p53 (FL393), p63 (4A4 and H-129), p73 (H-79), p21 (C-19), Bax (N-20), GST (B-14), c-Myc (A14), Miz1 (H-190), Chk1 (G4), Actin (C-2) and GAPDH (6C5) antibodies were purchased from Santa Cruz. TopBP1 (mouse monoclonal) and Aid antibodies were purchased from BD Transduction Laboratories. TopBP1 (BL893, Rabbit polyclonal) antibody was purchased from Bethyl. Mouse monoclonal anti-phospho-γH2AX was purchased from Millipore. Phospho-Chk1 (Ser345) antibody was purchased from Cell signaling. FLAG (F7425) antibody was purchased from Sigma. Mouse monoclonal anti-p73 (IMG-246) was purchased from IMGENEX.

[2] = biological target: T2, TopBP1/mutp53 (R249S) interaction (Homo sapiens, UniProt Q92547); assay: Co-immunoprecipitation in BT549 cells, TopBP1/mutp53; format: cell-based; details: 2.5 μM
T2 construct: endogenous in cells; host or cells: BT549

TopBP1/E2F1 interaction [3] = biological target: T1, TopBP1/E2F1 interaction; assay: Co-immunoprecipitation in BT549 cells, TopBP1/E2F1; format: cell-based; details: 2.5 μM, 3 h
[4] = system: p53 transcriptional activity; assay: p53 activity reporter assay (p21 promoter dual luciferase) in H1299 cells; format: cell-based, human
Protocol: (§1) E2F1 activity reporter assay using a p14^ARF promoter-luciferase plasmid was performed as described (Liu et al. 2003). p53 activity reporter assay was performed by a p21^Cip promoter-luciferase plasmid (Liu et al. 2009). p73 activity reporter assay was performed using a pGL3-Bax promoter-luciferase plasmid (Liu et al. 2011). pRL-TK (Renilla luciferase, Promega) was used in all experiments for controlling transfection efficiency. The firefly and Renilla luciferase activities were measured by Dual-Luciferase Reporter System (Promega), and the firefly luciferase activities were normalized against the Renilla activity. All assays were performed in triplicate.

[5] = system: mutp53(R273H) gain of function; assay: p73 activity reporter (Bax promoter-luciferase) assay in p53-null H1299 cells expressing p73α and mutp53(R273H); format: cell-based, human
Protocol: as §1

MDA-MB231 cells = assay: MTS assay, MDA-MB231; format: cell-based, human
Protocol: (§2) Then 50 μl of MTS reagent (CellTiter 96® AQueous One Solution Cell Proliferation Assay, Promega) was added to each well, covered from light and incubated for 1 h at 37.0 incubator to develop purple color. The samples were measured at 490 nm in a plate reader (BioTek Synergy HT) against a blank 48-well plate. Each assay was done in triplicate.

MCF7 cells = assay: Caspase 3/7 activity assay, MCF7; format: cell-based, human; details: 2.5 μM overnight
Protocol: (§3) The apoptosis was measured by Caspase-Glo® 3/7 assay (Promega) following the manufacturer's protocol. The cells were plated in 6-well tissue culture dish (10^4 cells/well) (BD Falcon) in respective media. […] The blank reactions were prepared per direction. Equal volume of Caspase-Glo® 3/7 reagents were applied to each well. A luminometer (Sirius) was used to quantitate luminescence.

MDA-MB468 cells = assay: Mammosphere formation; format: cell-based, human; details: 2.5 μM, 11 days
Protocol: For in vitro mammosphere culture, ˜5000 MDA-MB468 cells/well were seeded into a Ultra-low Adherent 6-well plate (Stem Cell Technologies) with 2 ml/well fresh complete MammoCult™ medium (Stem Cell Technologies) containing the MammoCult® Basal Medium, MammoCult® Proliferation Supplement, 4 μg/ml Heparin (Stem Cell Technologies) and fresh 0.48 μg/ml Hydrocortisone. Cells were incubated in a 5% CO2 incubator at 37° C. for 7-11 days. […] Each treatment was done in triplicate.

[6] = system: SKOV-3 ovarian cancer cells; assay: MTS assay, SKOV-3; format: cell-based, human
Protocol: as §2

HEK293 cells = assay: Caspase-Glo 3/7 activity assay, HEK293; format: cell-based, human; details: 2.5 μM overnight
Protocol: as §3
To prepare TopBP1 knockdown stable cell line, MDA-MB468 cells were infected with lentivirus expressing TopBP1 shRNA (Liu et al. 2011) as well as scramble shRNA, separately. The infected cells were grown for 48 h followed by selection with puromycin (2 μg/ml). After selection, the knockdown was confirmed by Western blotting before further experiments. Two different pLKO-shTopBP1 (#1 and #2) constructs (Open Biosystems, RHS4533-NM_007027) were used to deplete TopBP1 in MDA-MB468 cells. Additional two pSuper-shTopBP1 constructs (Liu et al. 2004) were used to knock down TopBP1 in HEK293 cells. Two pSuper-shE2F1 constructs were used to deplete E2F1: shE2F1#1 (described previously (Liu et al. 2004)), and shE2F1#2 (target sequence 5′-[…]-3′). The target sequence for pSuperior-shE2F1 is the same as pSuper-shE2F1#1. To deplete p63, shp63alpha pLKO.1-puro (from Addgene, 19120) was used. TP73 MISSION shRNA (shp73 pLKO.1-puro) was purchased from Sigma (TRCN00002722587).

[7] = system: 4T1 mouse breast tumor cells; assay: Apoptosis in mouse tumor cells; format: cell-based
Protocol: as §3

NCI-60 cancer cell lines = details: NCI-DTP data, cited from earlier work
BT549 = details: NCI-DTP database; cited from earlier work

T1 sequence (Q92547 whole entry): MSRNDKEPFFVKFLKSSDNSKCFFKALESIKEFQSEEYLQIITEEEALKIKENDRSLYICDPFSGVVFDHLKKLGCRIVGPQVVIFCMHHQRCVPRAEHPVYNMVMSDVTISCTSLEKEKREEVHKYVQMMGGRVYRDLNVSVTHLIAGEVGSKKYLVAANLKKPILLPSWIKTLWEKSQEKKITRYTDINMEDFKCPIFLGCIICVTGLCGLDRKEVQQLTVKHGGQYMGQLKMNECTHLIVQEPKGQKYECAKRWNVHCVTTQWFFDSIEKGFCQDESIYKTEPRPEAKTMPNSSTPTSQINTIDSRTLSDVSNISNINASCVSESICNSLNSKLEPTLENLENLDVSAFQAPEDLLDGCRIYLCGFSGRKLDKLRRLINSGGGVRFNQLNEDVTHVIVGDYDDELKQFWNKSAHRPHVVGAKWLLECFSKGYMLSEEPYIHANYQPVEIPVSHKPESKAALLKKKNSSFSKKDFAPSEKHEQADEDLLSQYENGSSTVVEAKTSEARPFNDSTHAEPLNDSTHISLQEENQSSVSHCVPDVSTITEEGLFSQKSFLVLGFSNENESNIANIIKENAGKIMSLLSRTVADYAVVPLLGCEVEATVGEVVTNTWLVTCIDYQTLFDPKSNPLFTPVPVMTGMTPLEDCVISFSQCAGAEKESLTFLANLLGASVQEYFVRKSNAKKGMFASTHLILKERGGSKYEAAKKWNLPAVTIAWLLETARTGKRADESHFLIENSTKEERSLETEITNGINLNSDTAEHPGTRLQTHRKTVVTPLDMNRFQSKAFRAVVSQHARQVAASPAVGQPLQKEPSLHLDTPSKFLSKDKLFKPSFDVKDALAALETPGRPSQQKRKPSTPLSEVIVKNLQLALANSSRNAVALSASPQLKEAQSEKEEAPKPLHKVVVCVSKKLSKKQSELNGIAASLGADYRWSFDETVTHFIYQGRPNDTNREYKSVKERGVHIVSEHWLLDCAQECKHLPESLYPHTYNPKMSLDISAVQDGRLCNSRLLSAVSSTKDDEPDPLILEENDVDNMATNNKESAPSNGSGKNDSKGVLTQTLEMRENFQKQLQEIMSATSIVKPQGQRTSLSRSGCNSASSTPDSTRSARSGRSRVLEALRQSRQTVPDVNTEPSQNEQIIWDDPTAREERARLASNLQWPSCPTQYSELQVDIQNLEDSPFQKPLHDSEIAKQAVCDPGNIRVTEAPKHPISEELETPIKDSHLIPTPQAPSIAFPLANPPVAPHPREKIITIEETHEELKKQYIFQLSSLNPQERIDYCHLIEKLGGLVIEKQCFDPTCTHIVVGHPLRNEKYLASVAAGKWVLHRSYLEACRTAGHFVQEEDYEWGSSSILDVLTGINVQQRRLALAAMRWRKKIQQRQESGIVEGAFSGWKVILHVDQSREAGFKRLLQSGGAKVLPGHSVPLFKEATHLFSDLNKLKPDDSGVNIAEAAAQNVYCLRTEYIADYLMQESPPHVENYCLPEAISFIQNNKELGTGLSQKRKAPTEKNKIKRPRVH
T2 sequence (Q92547 whole entry, stated change not applied): as the sequence (Q92547 whole entry) above

For `CC(=O)OCOC(=O)CN(CC(=O)OCOC(C)=O)Cc1cc2c(cc1OC(C)=O)Oc1cc(OC(C)=O)c(CN(CC(=O)OCOC(C)=O)CC(=O)OCOC(C)=O)cc1C21OC(=O)c2ccccc21` [Calcein AM, Calcein AM (acetoxymethyl ester)], the “TopBP1/E2F1 interaction at physiological levels” value (TopBP1/E2F1 interaction [1]) was “inhibited”, the “interaction between TopBP1 and mutp53” value [2] was “inhibited” and the “interaction between TopBP1 and E2F1” value (TopBP1/E2F1 interaction [3]) was “inhibited”. For the same compound, the p53 transcriptional activity [4] was “enhanced”, the “inhibition of p73 transcriptional activity by mutp53(R273H)” value [5] was “blocked” and the “anti-apoptotic activity of overexpressed TopBP1 (doxorubicin resistance)” value (MDA-MB231 cells; AdTopBP1-infected cells, doxorubicin, Calcein AM 2.5 μM) was “blocked”. The “proliferation (MTS)” value (MDA-MB231 cells; increasing concentrations, 5 h, versus MCF10A) was “preferentially inhibited the proliferation”, the “apoptosis (caspase 3/7 activity)” value (MCF7 cells) was “induced apoptosis” and the mammosphere formation (MDA-MB468 cells) was “blocked”. The “proliferation (MTS)” value ([6]; Calcein AM 5 μM in combination with cisplatin 20 μM, 20 h) was “inhibited the proliferation”, the “proliferation (MTS)” value ([6]; Calcein AM alone, overnight) was “inhibited the proliferation” and the “apoptosis (caspase 3/7 activity)” value (HEK293 cells) was “induced apoptosis”. For the same compound, the “apoptosis (caspase 3/7 activity)” value (HEK293 cells; TopBP1-depleted HEK293 cells) was “could not induce more apoptosis”, the apoptosis [7] was “induced apoptosis” and the GI50 (NCI-60 cancer cell lines; read-out: average GI50 over all 60 cell lines) was 662 nM. The GI50 (NCI-60 cancer cell lines; read-out: highest GI50 of the 60 cell lines) was 11000 nM, the GI50 (NCI-60 cancer cell lines; read-out: lowest GI50 of the 60 cell lines) was 10 nM and the GI50 (BT549) was < 400 nM and 270 nM.
